From patent publication EP4737442A1, “DIAMINOVINYLIDENE DERIVATIVE OR SALT THEREOF, PEST CONTROL AGENT CONTAINING SAID COMPOUND, AND METHODS FOR USING THESE” (ADEKA CORPORATION, priority 2023, dated 2025)

Assays:
[1] = system: Plutella xylostella; assay: Insecticidal test against Plutella xylostella; conditions: in Brassica rapa, 144 h, read-out: corrected mortality (%), assessment
Text: Six days after the immersion in the drug solution, the number of surviving insects was examined.

[2] = system: Dirofilaria immitis; assay: Effect test on Dirofilaria immitis (larval motility inhibition); conditions: 168 h, read-out: motility inhibition rate
[3] = system: Laodelphax striatellus; assay: Insecticidal test against Laodelphax striatellus; conditions: in Oryza sativa, 192 h, read-out: corrected mortality (%), assessment
[4] = system: Frankliniella occidentalis; assay: Insecticidal test against Frankliniella occidentalis; conditions: in Phaseolus vulgaris, 96 h, read-out: corrected mortality (%), assessment
Text: Female adults of Frankliniella occidentalis were inoculated onto Phaseolus vulgaris leaf pieces, and after allowing them to lay eggs for one day, the female adults were removed. […] Four days after the treatment, the number of surviving larvae of this species larvae was examined.

CNC(Nc1ccc(F)nc1)=C1C(=O)CC(c2ccc(C(F)(F)F)cc2)NC1=O (stereo not drawn) [3-11]
mortality at 500 µg/mL [1]: 100%
inhibition at 100 µM [2]: ≥ 50%
mortality at 500 ppm [3]: 100%

Cn1nc(C2CC(=O)C(=C(Nc3ccc(F)cc3)Nc3ccc(F)nc3)C(=O)N2)cc1OC(F)F (stereo not drawn) [3-22]
mortality at 500 µg/mL [1]: 100%
inhibition at 100 µM [2]: ≥ 50%
mortality at 500 ppm [3]: 100%

CNC(Nc1ccc(F)nc1)=C1C(=O)CC(c2nc(-c3ccc(F)cc3)cs2)NC1=O (stereo not drawn) [3-23]
mortality at 500 µg/mL [1]: 100%
inhibition at 100 µM [2]: ≥ 50%
mortality at 500 ppm [3]: 100%

NC(Nc1ccc(F)cc1)=C1C(=O)CC(c2cnc(Cl)c(Br)c2)NC1=O (stereo not drawn) [3-42]
mortality at 500 µg/mL [1]: 100%
inhibition at 100 µM [2]: ≥ 50%
mortality at 500 ppm [3]: 100%

COC(=O)N1C(=O)C(=C(Nc2ccc(F)cc2)Nc2ccc(F)cc2)C(=O)CN1c1ccc(C#N)nc1 [6-4]
mortality at 500 µg/mL [4]: 100%
inhibition at 100 µM [2]: ≥ 50%
mortality at 500 ppm [3]: 100%

COCCOC(=O)N1C(=O)C(=C(Nc2cccc(F)c2)Nc2cccc(F)c2)C(=O)CN1c1ccc(C#N)nc1 [6-6]
mortality at 500 µg/mL [1]: 100%
mortality at 500 µg/mL [4]: 100%
inhibition at 100 µM [2]: ≥ 50%
mortality at 500 ppm [3]: 100%

COCCOC(=O)N1C(=O)C(=C(Nc2ccc(OC)cc2)Nc2ccc(OC)cc2)C(=O)CN1c1ccc(C#N)nc1 [6-7]
inhibition at 100 µM [2]: ≥ 50%
mortality at 500 ppm [3]: 100%

CNC(Nc1ccc(F)cc1)=C1C(=O)CN(c2cnc(C#N)c(Br)c2)N(C(=O)OC)C1=O [6-20]
mortality at 500 µg/mL [4]: 100%
inhibition at 100 µM [2]: ≥ 50%
mortality at 500 ppm [3]: 100%

CNC(Nc1ccc(F)c(F)c1)=C1C(=O)CN(c2ccc(Br)nc2)N(C(=O)OC)C1=O [6-22]
inhibition at 100 µM [2]: ≥ 50%
mortality at 500 ppm [3]: 100%

CCOC(=O)N1C(=O)C(=C(NC)Nc2cccc(F)c2)C(=O)CN1c1ccc(C#N)c(Cl)c1 [6-30]
mortality at 500 µg/mL [4]: 100%
inhibition at 100 µM [2]: ≥ 50%

CNC(Nc1ccc(F)cc1)=C1C(=O)CN(c2ccc(C#N)nc2)N(Cc2cnc(Cl)s2)C1=O [6-38]
mortality at 500 µg/mL [4]: 100%
inhibition at 100 µM [2]: ≥ 50%

CNC(Nc1ccc(F)cc1)=C1C(=O)CN(c2cnc(C#N)c(Br)c2)N(C)C1=O [6-47]
mortality at 500 µg/mL [4]: 100%
inhibition at 100 µM [2]: ≥ 50%
mortality at 500 ppm [3]: 100%

CC(C)(C)c1ccc(CSC(Nc2ccc(F)nc2)=C2C(=O)CC(c3cnc(Cl)c(Br)c3)NC2=O)cc1 (stereo not drawn) [9-32]
mortality at 500 µg/mL [1]: 100%
inhibition at 100 µM [2]: ≥ 50%
mortality at 500 ppm [3]: 100%

CSC(Nc1ccc(F)nc1)=C1C(=O)CC(c2cc(OC(F)F)n(C)n2)NC1=O (stereo not drawn) [9-35]
mortality at 500 µg/mL [1]: 100%
mortality at 500 µg/mL [4]: 100%
inhibition at 100 µM [2]: ≥ 50%
mortality at 500 ppm [3]: 100%

CSC(Nc1ccc(F)nc1)=C1C(=O)CC(c2nc(-c3ccc(F)cc3)cs2)NC1=O (stereo not drawn) [9-36]
mortality at 500 µg/mL [1]: 100%
mortality at 500 µg/mL [4]: 100%
inhibition at 100 µM [2]: ≥ 50%
mortality at 500 ppm [3]: 100%

CC(C)(C)OC(=O)N1CC(=O)C(=C(Nc2ccc(F)cn2)Nc2ccc(F)cn2)C(=O)C1 [compound No. 4-10, tertiary butyl 4-(bis((5-fluoropyridin-2-yl)amino)methylene)-3,5-dioxopiperidine-1-carboxylate]
mortality at 500 ppm [3]: 100%

NC(Nc1ccc(F)cc1)=C1C(=O)CCCN(c2ccc(C(F)(F)F)cc2)C1=O [compound No. 5-1, 3-(amino((4-fluorophenyl)amino)methylene)-1-(4-(trifluoromethyl)phenyl)azepane-2,4-dione]
mortality at 500 ppm [3]: 100%

COC(=O)N1C(=O)C(=C(NCC(F)F)Nc2ccc(F)cc2)C(=O)CN1c1ccc(C#N)nc1 [compound No. 6-15, methyl 2-(6-cyanopyridin-3-yl)-5-(((2,2-difluoroethyl)amino) ((4-fluorophenyl)amino)methylene)-4,6-dioxotetrahydropyridazine-1(2H)-carboxylate]
inhibition at 100 µM [2]: ≥ 50%
mortality at 500 ppm [3]: 100%
